Data on 17 compounds can be found in ChEMBL document CHEMBL1140579, “Synthesis of andrographolide derivatives and their TNF-alpha and IL-6 expression inhibitory activities” (2007).

Details in all cases: J774.A1, 24 h
For test [1], the system named is J774.A1. As to the kind of experiment: Inhibition of TNFalpha secretion in mouse J774A.1 cells at 20 uM after 24 hrs by ELISA; values are per cent of control. Background: An ELISA detects its analyte on a solid surface through an enzyme-linked reagent.
Test [2] has as its system J774.A1. As to the kind of experiment: Inhibition of LPS-induced TNFalpha secretion in mouse J774A.1 cells at 20 uM after 24 hrs by ELISA; values are per cent of control.
Test [3] relates to J774.A1. Nature of the test: IL6 secretion in mouse J774A.1 cells at 20 uM after 24 hrs by ELISA.
The subject of test [4] is J774.A1. As to the kind of experiment: Inhibition of LPS-induced IL6 secretion in mouse J774A.1 cells at 20 uM after 24 hrs by ELISA; values are per cent of control.

Turning to `CCCCCC(=O)OC[C@@]1(C)[C@H]2CC[C@@]3(C)OC(C4=CCOC4=O)CC3[C@]2(C)CC[C@H]1OC(=O)CCCCC` (stereo partly drawn), the level, % of control at 20 µM stood at 35.7% in the test on J774.A1 [1], 43.8% with J774.A1 [2] and 85.2% with J774.A1 [4]. For the same compound, the % of control at 20 µM in the test with J774.A1 [3] worked out at 31.4%.
Regarding `C=C1CC[C@@H]2[C@](C)(CO)[C@H](O)CC[C@@]2(C)[C@@H]1CC(OC(=O)c1ccccc1)C1=CCOC1=O` (stereo partly drawn), the level, % of control at 20 µM came to 92.9% in the test with J774.A1 [1], 60.8% with J774.A1 [2] and 37.5% with J774.A1 [4]. Besides, the % of control at 20 µM in the test with J774.A1 [3] is 82%.
With `CCC(=O)OC[C@@]1(C)[C@H]2CC[C@@]3(C)OC(C4=CCOC4=O)CC3[C@]2(C)CC[C@H]1OC(=O)CC` (stereo partly drawn), the level, % of control at 20 µM in the test on J774.A1 [1] was determined as 82.8%; in the test with J774.A1 [2], 115%; in the test on J774.A1 [4], 110%. In the test on J774.A1 [3], this compound registered a % of control at 20 µM of 60.5%.
For `C[C@]1(COC=O)[C@H]2CC[C@@]3(C)OC(C4=CCOC4=O)CC3[C@]2(C)CC[C@H]1OC(=O)c1ccccc1` (stereo partly drawn) the same measures were 28.5%, 36.5%, 85.7% and 27.7%.
`C=C1CC[C@@H]2[C@](C)(CO)[C@H](O)CC[C@@]2(C)[C@@H]1CC(OC(=O)c1cc2c(cc1[N+](=O)[O-])OCO2)C1=CCOC1=O` (stereo partly drawn): the level, % of control at 20 µM in the test with J774.A1 [1] worked out at 115%; in the test with J774.A1 [2], 94.4%; with J774.A1 [4], 44.6%. The % of control at 20 µM with J774.A1 [3] was 70.1%.
The matching figures for `C=C1CC[C@@H]2[C@](C)(CO)[C@H](O)CC[C@@]2(C)[C@@H]1CC(OC(=O)CC)C1=CCOC1=O` (stereo partly drawn): 70%, 96.9%, 74.7% and 82.6%.
As to `CCCCCC(=O)O[C@@H]1CC[C@@]2(C)C3CC(C4=CCOC4=O)O[C@]3(C)CC[C@@H]2[C@]1(C)CO` (stereo partly drawn), the level, % of control at 20 µM was 44.4% in the test on J774.A1 [1], 106% in the test on J774.A1 [2] and 102% in the test on J774.A1 [4]. In addition, the % of control at 20 µM with J774.A1 [3] turned out to be 69.8%.
Take `C=C1CC[C@@H]2[C@](C)(CO)[C@H](O)CC[C@@]2(C)[C@@H]1CC(OC(=O)C/C=C/c1ccc2c(c1)OCO2)C1=CCOC1=O` (stereo partly drawn): the level, % of control at 20 µM with J774.A1 [1] was 149%; with J774.A1 [2] it was 61%; in the test on J774.A1 [4], 56.9%. In addition, the % of control at 20 µM with J774.A1 [3] came to 96%.
For `C=C1CC[C@@H]2[C@](C)(CO)[C@H](O)CC[C@@]2(C)[C@@H]1CC(OC(C)=O)C1=CCOC1=O` (stereo partly drawn) the same measures were 107%, 62.7%, 44.7% and 95.1%.
With `C[C@]1(COC(=O)c2ccccc2)[C@H]2CC[C@@]3(C)OC(C4=CCOC4=O)CC3[C@]2(C)CC[C@H]1OC(=O)c1ccccc1` (stereo partly drawn), the level, % of control at 20 µM in the test with J774.A1 [1] came to 204%; with J774.A1 [2], 294%; in the test with J774.A1 [4], 107%. The compound also came in with a % of control at 20 µM in the test with J774.A1 [3] of 48.2%.
The matching figures for `C=C1CC[C@@H]2[C@](C)(CO)[C@H](O)CC[C@@]2(C)[C@@H]1CC(OC(=O)CCCCC)C1=CCOC1=O` (stereo partly drawn): 79.6%, 76%, 46.6% and 82.9%.
The matching figures for `C=C1CC[C@@H]2[C@](C)(CO)[C@H](O)CC[C@@]2(C)[C@@H]1C/C=C1/C(=O)OC[C@H]1O` [ANDROGRAPHOLIDE]: 63.9%, 62.5%, 56% and 49.2%.
For `C[C@@]12COS(=O)O[C@@H]1CC[C@@]1(C)C3CC(C4=CCOC4=O)O[C@]3(C)CC[C@H]21` (stereo partly drawn), the level, % of control at 20 µM with J774.A1 [1] stood at 61.8%; in the test with J774.A1 [2], 231%; with J774.A1 [4], 208%. This compound yielded a % of control at 20 µM with J774.A1 [3] of 79.7%.
Turning to `C[C@]1(COC(=O)C(=O)CCC(=O)O)[C@H]2CC[C@@]3(C)OC(C4=CCOC4=O)CC3[C@]2(C)CC[C@H]1OC(=O)C(=O)CCC(=O)O` (stereo partly drawn), the level, % of control at 20 µM amounted to 81.7% with J774.A1 [1], 129% in the test with J774.A1 [2] and 114% with J774.A1 [4]. This compound yielded a % of control at 20 µM in the test on J774.A1 [3] of 55%.
Consider `C=C1CC[C@@H]2[C@](C)(CO)[C@H](O)CC[C@@]2(C)[C@@H]1CC(OC(=O)c1ccc(C)cc1)C1=CCOC1=O` (stereo partly drawn), for which the level, % of control at 20 µM with J774.A1 [1] came to 152%; in the test on J774.A1 [2], 41.6%; with J774.A1 [4], 32.1%. In addition, the % of control at 20 µM in the test with J774.A1 [3] was 128%.
As for `CC(=O)OC[C@@]1(C)[C@H]2CC[C@@]3(C)OC(C4=CCOC4=O)CC3[C@]2(C)CC[C@H]1OC(C)=O` (stereo partly drawn), the level, % of control at 20 µM is 80% in the test with J774.A1 [1], 99.4% in the test with J774.A1 [2] and 150% in the test on J774.A1 [4]. Moreover, in the test on J774.A1 [3], the % of control at 20 µM was found to be 72.9%.
Turning to `C=C1CC[C@@H]2[C@](C)(CO)[C@H](O)CC[C@@]2(C)[C@@H]1CC(OC(=O)c1ccc([N+](=O)[O-])cc1)C1=CCOC1=O` (stereo partly drawn), the level, % of control at 20 µM in the test on J774.A1 [1] was determined as 65.8%; in the test with J774.A1 [2], 60%; with J774.A1 [4], 29.2%. This compound also had a % of control at 20 µM in the test with J774.A1 [3] of 58.6%.
